US4499087A, “7-Phenyl-7-phenoxymethyl-hexahydro-1,4-oxazepines and their use” (BASF Aktiengesellschaft, priority 1982, dated 1985)
Where a name gives a salt, the structure may show the parent alone.

The compounds below were run on norepinephrine uptake (assay: Inhibition of norepinephrine uptake in rat brain synaptosomes (hippocampus, 3H norepinephrine)). Conditions: rat hippocampus synaptosomes, 3H norepinephrine about 10 nM, 37° C.; read-out: Norepinephrine IC50 (inhibition of neurotransmitter uptake in synaptosomes).
Type: biochemical
Protocol: (§1) The action mechanism of a group of therapeutically much used antidepressants must be regarded as being the inhibition of the neuronal uptake of transmitter substances (norepinephrine and/or serotonin). These properties were utilized in biological test models for characterizing potential antidepressants (inhibition of neurotransmitter uptake in rat brain synaptosomes):
(§2) Hippocampus and cortex from rat brain were prepared, and were homogenized in 0.32M sucrose solution. By means of differential centrifuging, synaptosomes were obtained, and these were suspended in buffer solution. The synaptosomes are able actively to take up added neurotransmitter substances (eg. norepinephrine or serotonine) from the surrounding medium. It is possible to antagonize this process by uptake inhibitors, as a function of concentration. Various concentrations of the test substances were added to the synaptosomes, and the mixtures were then incubated with ^3 H norepinephrine (hippocampus) or ^3 H serotonin (cortex) at 37° C. The substrate concentration was about 10 nM. The uptake was terminated by diluting the mixture with ice-cooled buffer solution, after which the synaptosomes were separated off by centrifuging and the ^3 H activity in the sediment was measured. A blank value was determined by incubation at 0° C.
(§3) From the inhibitory values determined for various inhibitor concentrations compared with the control, the mean inhibitory concentration (IC50) was calculated by linear regression following logit-log transformation.

Row | SMILES | IC50 [nM]
1 | Clc1ccc(OCC2(c3ccccc3)CCNCCO2)cc1 (stereo not drawn) [Example 4, 7-phenyl-7-(4-chlorophenoxymethyl)-hexahydro-1,4-oxazepine] | 74
2 | CN(C)CCCN1c2ccccc2CCc2ccccc21 [Imipramine, reference compound] | 14
3 | Clc1ccccc1OCC1(c2ccccc2)CCNCCO1 (stereo not drawn) [Example 2, 7-phenyl-7-(2-chlorophenoxymethyl)-hexahydro-1,4-oxazepine hydrochloride] | 2.8
4 | COc1ccccc1OCC1(c2ccccc2)CCNCCO1 (stereo not drawn) [Example 3, 7-phenyl-7-(2-methoxyphenoxymethyl)-hexahydro-1,4-oxazepine hydrochloride] | 5.9
5 | c1ccc(OCC2(c3ccccc3)CCNCCO2)cc1 (stereo not drawn) [Example 1, 7-phenyl-7-phenoxymethyl-hexahydro-1,4-oxazepine hydrochloride] | 15
6 | CN1CCOC(COc2ccccc2Cl)(c2ccccc2)CC1 (stereo not drawn) [Example 7] | 98
7 | COc1ccc(OCC2(c3ccccc3)CCNCCO2)cc1.Cl (stereo not drawn) [Example 5, 7-phenyl-7-(4-methoxyphenoxymethyl)-hexahydro-1,4-oxazepine hydrochloride] | 86

Same assay, conditions: synaptosomes, both transmitters

Row | SMILES | inhibition of norepinephrine and serotonin uptake (in words)
8 | Clc1ccc(OCC2(c3ccccc3)CCNCCO2)cc1 (stereo not drawn) [Example 4, 7-phenyl-7-(4-chlorophenoxymethyl)-hexahydro-1,4-oxazepine] | inhibit the uptake of both transmitters at an equally low concentration
9 | CN(C)CCCN1c2ccccc2CCc2ccccc21 [Imipramine, reference compound] | inhibits both norepinephrine uptake and serotonin uptake at low concentration
10 | CN1CCOC(COc2ccccc2Cl)(c2ccccc2)CC1 (stereo not drawn) [Example 7] | inhibit the uptake of both transmitters at an equally low concentration
11 | COc1ccc(OCC2(c3ccccc3)CCNCCO2)cc1.Cl (stereo not drawn) [Example 5, 7-phenyl-7-(4-methoxyphenoxymethyl)-hexahydro-1,4-oxazepine hydrochloride] | inhibit the uptake of both transmitters at an equally low concentration

These compounds were tested on serotonin uptake (assay: Inhibition of serotonin uptake in rat brain synaptosomes (cortex, 3H serotonin)). Conditions: 3H serotonin about 10 nM, 37° C., read-out: Serotonin IC50 (inhibition of neurotransmitter uptake in synaptosomes).
Type: biochemical
Protocol: as §1, §2, §3

Row | SMILES | IC50 [nM]
12 | Clc1ccc(OCC2(c3ccccc3)CCNCCO2)cc1 (stereo not drawn) [Example 4, 7-phenyl-7-(4-chlorophenoxymethyl)-hexahydro-1,4-oxazepine] | 39
13 | CN(C)CCCN1c2ccccc2CCc2ccccc21 [Imipramine, reference compound] | 130
14 | Clc1ccccc1OCC1(c2ccccc2)CCNCCO1 (stereo not drawn) [Example 2, 7-phenyl-7-(2-chlorophenoxymethyl)-hexahydro-1,4-oxazepine hydrochloride] | 460
15 | COc1ccccc1OCC1(c2ccccc2)CCNCCO1 (stereo not drawn) [Example 3, 7-phenyl-7-(2-methoxyphenoxymethyl)-hexahydro-1,4-oxazepine hydrochloride] | 190
16 | c1ccc(OCC2(c3ccccc3)CCNCCO2)cc1 (stereo not drawn) [Example 1, 7-phenyl-7-phenoxymethyl-hexahydro-1,4-oxazepine hydrochloride] | 190
17 | CN1CCOC(COc2ccccc2Cl)(c2ccccc2)CC1 (stereo not drawn) [Example 7] | 300
18 | COc1ccc(OCC2(c3ccccc3)CCNCCO2)cc1.Cl (stereo not drawn) [Example 5, 7-phenyl-7-(4-methoxyphenoxymethyl)-hexahydro-1,4-oxazepine hydrochloride] | 100
